Several values for one entry are separate records, joined by “and”; a condition that tells them apart may be missing. Equal entries are not always repeated.
Legend:
[1] = system: albumin; test: Albumin/glucose anti-glycation assay (Example 1); assay type: biochemical; details: 1 mM; positive control; FIG. 1
Procedure: Each reaction mixture contained 10 mg/ml albumin (Sigma) in PBS with 500 mM glucose (Sigma G8270) in PBS. The negative control was 10 mg/ml albumin without glucose. A negative control was used for each experimental point. The positive control was 10 mg/ml albumin with 500 mM glucose with 1 mM aminoguanidine hydrochloride (Sigma 396494).
Each mineral extract composition was diluted in type I sterile water to 10 mg/ml sterilized by 0.22 micron filtration and incubated at dilutions 100 ug/ml, 10 ug/ml, 1 ug/ml and 0.1 ug/ml with the reaction mixture with or without glucose for 11 days at 37° C. in the presence of sodium azide.
Protein glycation was detected by the increase of non-tryptophan fluorescence (excitation at 360 nm, emission at 460 nm) using microplate fluorometer Cytofluor 2350 (Millipore), as described (Argirova and Argirov, 2003). The glycation value for each experimental point was obtained by subtracting the background reading (samples without glucose).

[2] = system: Normal human dermal fibroblasts (NHDF); test: AGE in extracellular matrix collagen of glucose-treated NHDF, anti-AGE antibody spot blot (Example 2); assay type: cell-based; details: 1 mg/ml; for Intensity (AU): single replicates, hydrochloride
Procedure: Normal human dermal fibroblasts (NHDF) were cultivated in conditions that allow the synthesis of high amounts of extracellular matrix (ECM). NHDF were grown to confluence in normal medium in adequate format. Vitamin C was added to the media to induce matrix synthesis/deposition Cells were treated, (or not treated for the negative control) by three concentrations of the mineral extract composition or by a reference compound for a positive control (aminoguanidine). All the conditions were performed in triplicate. An excess of glucose was added to the cells and the cells were incubated at 37° C. for 15 days. At the end of the time, ECM proteins (mainly collagen) were extracted and purified and a fraction of each sample was loaded onto nitrocellulose in reproducible spots. The introduction of AGEs in collagen was shown using an anti-AGE antibody and it was labeled using a peroxidase conjugate and chemiluminescent reaction (ECL). Relative signal qualification was performed using a chemiluminescense imager.

[3] = system: albumin; test: AGE formation in the albumin/glucose model system (Example 11); assay type: biochemical
Procedure: Mineral extract composition (TL, ˜3% Solution) and a mogroside/mineral extract composition (SS II), Luo Han Guo Extract (L, Lot #MOG01-060502), Erythritol (E, Lot #07J241BP952) and Xylitol (X, Lot #H125T7G1) were kept at room temperature. […] The positive inhibitor control was aminoguanindine hydrochloride (AG) at 1 mM, (Sigma 396494). Protein glycation was detected by the increase of non-tryptophan fluorescence (excitation at 360 nm, emission at 460 nm) using microplate fluorometer Cytofluor 2350 (Millipore), as previously described (Argirova and Argirov, 2003). The glycation value for each experimental point was obtained by subtracting the background reading (samples without glucose) and was expressed as % of control (water).

[4] = system: human dermal fibroblasts; test: MTT mitochondrial metabolism assay (Example 10); assay type: cell-based
Description: The objective of this Example was to test the effect of 4 samples: A mogroside/mineral extract composition (Labeled—1 in FIG. 6A), mineral extract composition (Labeled—2 in FIG. 6A), Sucralose liquid concentrate (Labeled—3 in FIG. 6A) and erythritol (Labeled—4 in FIG. 6A) on the mitochondrial metabolism I fibroblast populations, using MTT assay. MTT assay measures the activity of succinate dehydrogenase, a key enzyme in the respiratory electron transport chain in mitrochondria (Berridge & Tan, 1993).
Test materials-were mogroside/mineral extract composition as made above in Example 9, mineral extract composition (˜3% Solution), Sucralose Liquid Concentrate (25% Sucralose by weight)—lot #F2304B311LB and Erythritol (25% Aqueous Solution)—lot #RFA 2104-35, and were kept at room temperature. Materials were diluted in type I sterile water, filtered through a 0.22μ filter and assayed at final concentrations of 2.5%, 0.5% and 0.05% (v:v) on human dermal fibroblasts (Invitrogen) for 72 h in high glucose DMEM medium with 5% calf serum.
In order to measure mitochondrial metabolism in whole cell populations, at the end of the experiment, MTT (3-(4,5-dimethylthiazol-2-yl)-2,5-diphenyltetrazolium bromide, Sigma cat. #M 5655) was added to cell cultures and incubation was continued for an additional 2 hours. Culture media were then discarded and intracellular MTT reduction product formazan was solubilized in 90% isopropanol. The colorimetric signal proportional to the mitochondrial activity in the cell cultures was measured with the BioRad microplate spectrophotometer 3550-UV at 570 nm.

[5] = system: adult human dermal fibroblasts (aHDF); test: Type I collagen sandwich ELISA in aHDF conditioned medium (Example 9); assay type: cell-based; details: all concentrations tested (0.5%, 0.1%, 0.05%, 0.01% w:v); 72 h
Procedure: A mineral extract composition (TL), Lot #100-151106, ˜3% Solution, and a mogroside/mineral extract composition as taught herein (SS II), mogrosides of Luo Han Guo Extract (Luo HG, Lot #MOG01-060502), Erythritol (Eryt, Lot #07241BP952) and Xylitol (Xylit, Lot #H125T7G1) were tested in the assay. All test materials were kept at room temperature. […] Water was the non-treated control and magnesium ascorbyl phosphate (MAP cat. #A8960, Sigma, St. Louis, Mo.) was the positive control. Cell culture conditioned media were harvested 72 h after the start of the experiment and tested for type I collagen by sandwich ELISA using affinity-purified antibodies, followed by streptavidin-avidin-HRP conjugate and ABTS, according to standard ELISA protocol (Dobak et al., 1994, Zhao et al, 2005). The colorimetric signal proportional to collagen content was measured with the BioRad microplate spectrophotometer 3550-UV at 405 nm.

[6] = system: Normal human dermal fibroblasts; test: Type I collagen sandwich ELISA in fibroblast conditioned medium (Example 4); assay type: cell-based; details: positive control; 5 days; FIG. 3
Procedure: Normal human dermal fibroblasts (passage 7, lot #7F1254, Cambrex, Walkersville, Md.) were seeded in a 96-well plate (plate #431) in DMEM medium (high glucose) containing 5% fetal calf serum, and grown to late subconfluent stage. Aqueous solutions of mineral extract composition were prepared in sterile Type I water and added to cell cultures at 1/20 dilution. Water was the non-treated control and magnesium ascorbyl phosphate (MAP cat. #A8960, Sigma, St. Louis, Mo.) was the positive control. Cell culture conditioned media were harvested 5 days after the start of the experiment and tested for type I collagen by sandwich ELISA using affinity-purified antibodies, followed by streptavidin-avidin-HRP conjugate and ABTS, according to standard ELISA protocol (Dobak et al., 1994, Zhao et al, 2005).
The colorimetric signal proportional to collagen content was measured with the BioRad microplate spectrophotometer 3550-UV at 405 nm. See FIG. 3, Effect of mineral extract composition on type I collagen in HDF-conditioned medium.

[7] = system: human dermal fibroblasts from a donor; test: MTT mitochondrial metabolism assay (Example 3); assay type: cell-based
Procedure: The objective of this assay was to test the effect of mineral extract compositions (6 lots) on the mitochondrial metabolism in a cell culture population, using MTT assay. MTT assay measures the activity of succinate dehydrogenase, a key enzyme in the respiratory electron transport chain is mitochondria (Berridge & Tan, 1993).
Mineral extract compositions were diluted in type I sterile water to 10 mg/ml, sterilized by 0.22 micron filtration and incubated at dilutions 500 ug/ml, 50 ug/ml and 5 ug/ml and 0.5 ug/ml with 2,500 human dermal fibroblasts from a donor (Cascade Biologics, lot #061215-901) per well for 72 h in high glucose DMEM medium with 2.5% calf serum.
For mitochondrial metabolism measurement, at the end of the experiment, MTT (3-(4,5-dimethylthiazol-2-yl)-2,5-diphhenyltetrazolium bromide, Sigma cat. #M 5655) was added to cell cultures and incubated for 2 h. Culture media were then discarded and intracellular MTT reduction product formazan was solubilized in 100% DMSO. The colorimetric signal proportional to the mitochondrial activity in the cell cultures was measured with the BioRad microplate spectrophotometer 3550-UV at 570 nm.
The mitochondrial metabolism was standardized with regard to cell numbers by establishing the ratio of the two corresponding signals.

[8] = system: Clostridium collagenase IV; test: Metalloproteinase (collagenase) activity, Enzcheck quenched fluorescent gelatin (Example 5); assay type: biochemical; details: 100 ug/ml; positive control
Procedure: Metalloproteinase (MP) (collagenase) activity was measured with Enzcheck kit from Molecular Probes (Invitrogen, IL) using quenched fluorescent gelatin and Clostridium collagenase IV, a generic metalloproteinase. Mineral extract composition, in dilutions of 500 ug/ml, 50 ug/ml and 5 ug/ml and 0.5 ug/ml, were incubated in the presence of collagenase substrate-quenched fluorescin-linked gelatin and in the presence of the proteolytic enzyme collagenase. Phenanthroline, a potent MP inhibitor was used as positive control at 100 ug/ml. The kinetics of the release of the digested, fluorescent gelatin were measured at excitation/emission wavelengths of 485/530 nm with Millipore Cytofluor 2350 microfluorometer.

[9] = 2.5%, 0.5% and 0.05% (v:v), 72 h, FIG. 6A

Cl.N=C(N)NN [Aminoguanidine, aminoguanidine hydrochloride]
inhibitory activity on albumin glycation [1]: good inhibitory activity
% Control ([2]; First membrane): 62%
Average ([2]; First membrane): 33454 AU
Intensity (AU) ([2]; First membrane): 38328 AU and 37316 AU and 24719 AU
% Control ([2]; Membrane 2): 64%
Average ([2]; Membrane 2): 38752 AU
Intensity (AU) ([2]; Membrane 2): 38464 AU (2×) and 41333 AU (2×) and 36460 AU (2×)
glycation-inhibitory activity ([3]; 1 mM, positive inhibitor control): strong glycation-inhibitory activity

OC[C@@H](O)[C@@H](O)CO [Erythritol]
effect on mitochondrial metabolism (MTT) [4, 9]: no activity
collagen-stimulatory activity [5]: no significant activity
glycation-inhibitory effect ([3]; at lower concentrations): moderate inhibitory effect

O=C1O[C@H]([C@@H](O)CO)C([O-])=C1OP(=O)([O-])[O-].O=C1O[C@H]([C@@H](O)CO)C([O-])=C1OP(=O)([O-])[O-].[Mg+2].[Mg+2].[Mg+2] [MAP, magnesium ascorbyl phosphate]
stimulation of collagen I [6]: Strong stimulation

OC[C@H]1O[C@H](O[C@]2(CCl)O[C@H](CCl)[C@@H](O)[C@@H]2O)[C@H](O)[C@@H](O)[C@H]1Cl [Sucralose]
effect on mitochondrial metabolism (MTT) [4, 9]: inhibited cell metabolism

OC[C@@H](O)[C@H](O)[C@@H](O)CO [Xylitol]
collagen-stimulatory activity [5]: no significant activity
glycation-inhibitory effect ([3]; all concentrations tested (0.5%, 0.1%, 0.05%, 0.01% w:v), FIG. 7): no effect

CN(CC(=O)O)C(=N)N [creatine]
stimulation of mitochondrial metabolism ([7]; 500 ug/ml, 72 h): 6.3%

c1cnc2c(c1)ccc1cccnc12 [phenanthroline, Phenanthroline]
MP activity [8]: totally inhibited

bFGF: basic fibroblast growth factor, positive control
sensitivity of fibroblast mitochondrial metabolism ([7]; results not shown): not sensitive
effect on mitochondrial metabolism (MTT) ([4]; 15 nM, positive control): metabolic stimulation

— patent US20150150909A1, “ANTI-GLYCATION METHODS AND COMPOSITIONS” (CORE INTELLECTUAL PROPERTIES HOLDINGS, LLC, priority 2007, published 2015)
